We go through two molecules from PubChem BioAssay (NCI).

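Exposure lasted 48 hours, with cells grown in 96-well plates and compounds tested at five concentrations. TGI is the concentration that stops growth completely.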

Test systems include K-562 leukemia; HCT-116 colon; SK-MEL-28 melanoma; NCI-H226 lung; SF-539 CNS; SR leukemia; OVCAR-5 ovarian; SNB-19 CNS; UO-31 renal; IGROV1 ovarian; M14 melanoma; UACC-62 melanoma; LOX IMVI melanoma; SF-295 CNS; A549 NSCLC; PC-3 prostate; MDA-MB-231 breast; SW-620 colon.
Common to all, as to assay: DTP human tumour cell line panel, 48 h

As usually defined, the TGI is the concentration at which net growth stops. A higher TGI goes with lower sensitivity of the cells. For the molecule `COC(=O)/C=C1/OC(c2ccc(C)cc2)=C(Cl)C1=O`, the TGI was found to be 19 µM with K-562 leukemia; 24.7 µM in the test with HCT-116 colon; 30.9 µM in the test on SK-MEL-28 melanoma; 47.1 µM in the test with NCI-H226 lung; 35.5 µM with SF-539 CNS; 9.06 µM in the test on SR leukemia. The TGI was determined as 35 µM in the test on OVCAR-5 ovarian; 52.2 µM in the test with SNB-19 CNS; 31.6 µM in the test on UO-31 renal; 34.4 µM in the test with IGROV1 ovarian; 35.5 µM in the test with M14 melanoma; 36.9 µM in the test with UACC-62 melanoma. Moreover, the TGI was determined as 23.7 µM with LOX IMVI melanoma; 41.7 µM in the test with SF-295 CNS; 40.4 µM in the test with A549 NSCLC; 27.7 µM with PC-3 prostate; 33.6 µM in the test with MDA-MB-231 breast; 28.9 µM in the test on SW-620 colon.
For `N#CC1(C#N)C(c2ccccc2)C=CC(c2ccc([N+](=O)[O-])cc2)C1(C#N)C#N` (stereo unspecified), the TGI in the test with K-562 leukemia is over 100 µM; in the test on HCT-116 colon, 13.7 µM; in the test with SK-MEL-28 melanoma, 35.5 µM; with NCI-H226 lung it was over 57.5 µM; with SF-539 CNS, 8.38 µM; with SR leukemia, over 23.6 µM. Further, the TGI in the test on OVCAR-5 ovarian is 31.9 µM; with SNB-19 CNS, 34.1 µM; in the test on UO-31 renal, 26.8 µM; in the test on IGROV1 ovarian, 27.8 µM; with M14 melanoma, 15.7 µM; in the test with UACC-62 melanoma it was 24.8 µM. In addition, the TGI in the test with LOX IMVI melanoma is 6.87 µM; with SF-295 CNS it was 33.7 µM; in the test with A549 NSCLC it was 32 µM; in the test on PC-3 prostate it was 25 µM; in the test with MDA-MB-231 breast, 28.1 µM; in the test with SW-620 colon, over 32.4 µM.
